Laboratory results published in the supplement of paper PMC10307832.

What was measured:
Assay in all cases: relative viability (nuclei count vs DMSO), 5 days (fraction); higher = more cells survive
Carfilzomib + Phenformin = compound: CC(C)C[C@H](NC(=O)[C@H](CCc1ccccc1)NC(=O)CN1CCOCC1)C(=O)N[C@@H](Cc1ccccc1)C(=O)N[C@@H](CC(C)C)C(=O)[C@@]1(C)CO1 [Carfilzomib] + N=C(N)NC(=N)NCCc1ccccc1 [Phenformin] (partner 250 µM)
Outline: (§1)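 Lung cancer cell lines in 1536-well plates were dosed by pin tool the day after seeding, either with one drug alone or with a fixed anchor-drug dose plus five library-drug doses (not always all listed) in √10 steps. After 5 days, cells were fixed and their nuclei stained in one step (final 0.05% Triton X-100, 1% formaldehyde, 1 ug/ml Hoechst), then counted on 4× images. Relative viability is the nuclei count in treated wells divided by that in vehicle wells. Values are medians of duplicate plates.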

Crizotinib + Tozasertib = compound: C[C@@H](Oc1cc(-c2cnn(C3CCNCC3)c2)cnc1N)c1c(Cl)ccc(F)c1Cl [Crizotinib] + Cc1cc(Nc2cc(N3CCN(C)CC3)nc(Sc3ccc(NC(=O)C4CC4)cc3)n2)n[nH]1 [Tozasertib] (partner 0.1 µM)
Outline: as §1

Olaparib + Luminespib = compound: O=C(c1cc(Cc2n[nH]c(=O)c3ccccc23)ccc1F)N1CCN(C(=O)C2CC2)CC1 [Olaparib] + CCNC(=O)c1noc(-c2cc(C(C)C)c(O)cc2O)c1-c1ccc(CN2CCOCC2)cc1 [Luminespib] (partner 0.01 µM)
Outline: as §1

Olaparib + Vorinostat = compound: O=C(c1cc(Cc2n[nH]c(=O)c3ccccc23)ccc1F)N1CCN(C(=O)C2CC2)CC1 [Olaparib] + O=C(CCCCCCC(=O)Nc1ccccc1)NO [Vorinostat] (partner 1 µM)
Outline: as §1

Row | Cell Line | relative viability (Carfilzomib + Phenformin; first compound 0.001 µM) | relative viability (Carfilzomib + Phenformin; first compound 0.003162 µM) | relative viability (Carfilzomib + Phenformin; first compound 0.01 µM) | relative viability (Carfilzomib + Phenformin; first compound 0.03162 µM) | relative viability (Carfilzomib + Phenformin; first compound 0.1 µM) | relative viability (Crizotinib + Tozasertib; first compound 0.01 µM) | relative viability (Crizotinib + Tozasertib; first compound 0.03162 µM) | relative viability (Crizotinib + Tozasertib; first compound 0.1 µM) | relative viability (Crizotinib + Tozasertib; first compound 0.3162 µM) | relative viability (Crizotinib + Tozasertib; first compound 1 µM) | relative viability (Olaparib + Luminespib; first compound 0.08 µM) | relative viability (Olaparib + Luminespib; first compound 0.253 µM) | relative viability (Olaparib + Luminespib; first compound 2.53 µM) | relative viability (Olaparib + Luminespib; first compound 8 µM) | relative viability (Olaparib + Vorinostat; first compound 0.08 µM) | relative viability (Olaparib + Vorinostat; first compound 0.253 µM) | relative viability (Olaparib + Vorinostat; first compound 2.53 µM) | relative viability (Olaparib + Vorinostat; first compound 8 µM)
1 | NCI-H1993 | 0.482 | 0.498 | 0.42 | 0.477 | 0.45 | 0.558 | 0.538 | 0.552 | 0.588 | 0.588 | 0.87 | 0.842 | 0.78 | 1.04 | 0.962 | 0.869 | 0.82 | 0.88
2 | NCI-H2009 | 0.514 | 0.564 | 0.449 | 0.155 | 0.101 | 0.746 | 0.712 | 0.731 | 0.678 | 0.665 | 1.13 | 0.966 | 0.893 | 0.701 | 0.836 | 0.666 | 0.674 | 0.645
3 | NCI-H2023 | 0.406 | 0.444 | 0.416 | 0.145 | 0.0723 | 0.356 | 0.284 | 0.293 | 0.241 | 0.271 | 0.647 | 0.724 | 0.629 | 0.379 | 0.734 | 0.531 | 0.507 | 0.315
4 | NCI-H2085 | 0.708 | 0.862 | 0.491 | 0.259 | 0.244 | 0.763 | 0.801 | 0.775 |  | 0.884 | 0.499 | 0.381 | 0.427 | 0.437 | 0.844 | 0.703 | 0.749 | 0.616
5 | NCI-H2087 | 0.471 | 0.445 | 0.13 | 0.0358 | 0.0687 | 0.254 | 0.213 | 0.254 |  | 0.274 | 0.162 | 0.159 | 0.199 | 0.154 | 0.834 | 0.761 | 0.658 | 0.546
6 | NCI-H2126 | 0.521 | 0.621 | 0.532 | 0.441 | 0.276 | 0.721 | 0.813 | 0.819 | 0.8 | 0.808 | 1.13 | 0.797 | 0.811 | 0.724 | 0.803 | 0.773 | 0.819 | 0.777
7 | NCI-H2170 | 0.423 | 0.457 | 0.427 | 0.411 | 0.232 | 0.683 | 0.793 | 0.669 | 0.792 | 0.681 | 0.735 | 0.651 | 0.594 | 0.5 | 0.811 | 0.754 | 0.748 | 0.748
8 | NCI-H2228 | 0.332 | 0.293 | 0.207 | 0.0804 | 0.108 | 0.237 | 0.229 | 0.172 | 0.209 | 0.182 | 0.146 | 0.132 | 0.145 | 0.117 | 0.587 | 0.541 | 0.742 | 0.449
9 | NCI-H2342 | 0.652 | 0.521 | 0.715 | 0.671 | 0.352 | 0.489 | 0.492 | 0.584 | 0.524 | 0.485 | 0.685 | 0.561 | 0.712 | 0.649 | 0.771 | 0.699 | 0.66 | 0.653
10 | NCI-H2347 | 0.274 |  | 0.341 | 0.163 | 0.141 | 0.462 | 0.564 | 0.615 | 0.527 | 0.422 | 0.43 | 0.615 | 0.398 | 0.259 | 0.577 | 0.568 | 0.588 | 0.398
11 | NCI-H2405 |  | 0.432 | 0.395 | 0.298 | 0.129 | 0.702 | 0.811 | 0.761 | 0.706 | 0.697 | 0.646 | 0.651 | 0.685 | 0.782 | 1.28 | 0.957 | 0.997 | 0.926
12 | NCI-H3122 | 0.375 | 0.446 | 0.366 | 0.278 | 0.0931 | 0.404 | 0.34 | 0.457 | 0.181 | 0.154 | 0.0823 | 0.107 | 0.101 | 0.0643 | 1.17 | 0.932 | 0.986 | 0.789
13 | PC-3 [JPC-3] | 0.487 | 0.461 | 0.464 | 0.432 | 0.261 | 0.834 | 0.878 | 0.934 | 0.836 | 0.855 | 0.832 | 0.749 | 0.587 | 0.592 | 0.923 |  | 0.943 | 0.942
14 | PC-14 | 0.549 | 0.774 | 0.557 | 0.115 | 0.0595 | 0.545 | 0.625 | 0.624 | 0.593 | 0.602 | 0.199 |  | 0.134 | 0.156 | 0.889 | 0.579 | 0.709 | 0.34
15 | RERF-LC-KJ | 0.44 | 0.421 | 0.419 | 0.354 | 0.236 | 0.455 | 0.516 | 0.49 | 0.477 | 0.527 | 1.22 | 1.08 | 1.23 | 1 | 0.79 | 0.644 | 0.748 | 0.633
16 | SK-LU-1 | 0.458 | 0.529 | 0.48 | 0.0958 | 0.114 | 0.287 | 0.373 | 0.328 | 0.334 | 0.27 | 0.228 | 0.178 | 0.194 | 0.199 | 0.847 | 0.705 | 0.726 | 0.545
17 | SK-MES-1 | 0.655 | 0.745 | 0.635 | 0.551 | 0.146 | 0.844 | 0.905 | 0.87 | 0.808 | 0.845 | 0.841 | 0.774 | 0.727 | 0.604 | 1.04 | 0.985 | 1.06 | 0.914
18 | SW 900 | 0.431 | 0.937 | 0.133 | 0.163 | 0.138 | 0.657 | 0.541 | 0.512 | 0.52 | 0.613 | 0.171 | 0.17 | 0.184 | 0.197 | 0.462 | 0.446 | 0.443 | 0.515
19 | SW 1573 | 0.341 | 0.43 | 0.251 | 0.0664 | 0.0618 | 0.178 | 0.216 | 0.188 | 0.198 | 0.162 | 0.376 | 0.221 | 0.204 | 0.158 | 1.08 | 0.693 | 0.711 | 0.489
20 | UMC-11 | 0.318 | 0.33 | 0.295 | 0.293 | 0.162 | 0.185 | 0.184 | 0.192 |  | 0.208 | 1.06 | 0.855 | 0.683 | 0.414 | 0.392 | 0.324 | 0.365 | 0.208
